The term inhibition denotes the relative decrease from the control value, in per cent.

Assay in all cases: Luciferase assay, overexpressed ER (3×-ERE-TATA-Luciferase reporter)
Assay type in all cases: cell-based

The target in test [1] is T1, HA-ERα L536R (Homo sapiens, UniProt P03372, L536R).
T1 construct: HA; expressed in transfected cells
T1 sequence (P03372 1-595 L536R): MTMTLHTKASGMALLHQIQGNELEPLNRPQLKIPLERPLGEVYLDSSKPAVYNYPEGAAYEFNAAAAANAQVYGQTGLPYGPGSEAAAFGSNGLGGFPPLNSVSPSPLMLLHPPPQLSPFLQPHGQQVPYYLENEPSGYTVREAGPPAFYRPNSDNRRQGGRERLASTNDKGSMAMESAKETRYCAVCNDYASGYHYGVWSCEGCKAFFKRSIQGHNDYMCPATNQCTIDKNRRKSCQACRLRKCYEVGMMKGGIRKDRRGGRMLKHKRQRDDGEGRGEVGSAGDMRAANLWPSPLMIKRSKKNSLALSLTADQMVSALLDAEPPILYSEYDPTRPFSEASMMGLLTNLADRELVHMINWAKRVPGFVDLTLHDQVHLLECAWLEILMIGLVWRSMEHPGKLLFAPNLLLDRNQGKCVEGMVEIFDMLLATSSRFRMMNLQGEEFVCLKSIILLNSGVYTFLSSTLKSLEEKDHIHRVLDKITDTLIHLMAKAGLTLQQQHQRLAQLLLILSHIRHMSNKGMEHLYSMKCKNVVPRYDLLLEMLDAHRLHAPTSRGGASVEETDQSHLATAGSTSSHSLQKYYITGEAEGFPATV
Particulars: compound concentration 1 μM, 24 hours. The method, then: (§1) Luciferase assays were performed to determine the efficacy of the example compounds at inhibiting ER or its mutants' ability to activate transcription of genes.
(§2) Cells were plated at a density of 0.15×10^6 per well of 24 well plates one day prior to transfection. Cells were transfected with 125 ng (per well) of HA-ERα wild type or mutants, 315 ng (per well) of 3×-ERE-TATA-Luciferase reporter and 50 ng (per well) of pRL-TK Renilla Luciferase plasmid, using Xtremegene (Roche). The cells were treated with the various compounds or Fulvestrant at the indicated doses a day after transfection for 24 hours and luciferase activities were determined using the Dual-Luciferase® Reporter Assay System (Promega) according to manufacturer's instructions. Luciferase bioluminescence measurements were performed with the Veritas™ Microplate Luminometer (Promega). All experiments were conducted in triplicate and the Firefly luciferase activity was normalized with the Renilla luciferase activity of each sample.

For test [2], the target named is T2, HA-ERα Y537S (Homo sapiens, UniProt P03372, Y537S).
T2 construct: HA; expressed in transfected cells
T2 sequence (P03372 1-595 Y537S): T1 sequence (P03372 1-595 L536R) with R536L, Y537S
Conditions: compound concentration 1 μM, 24 hours. The method, then:
as §1, §2

Test [3] has as its target T3, HA-ERα wild type (Homo sapiens, UniProt P03372).
T3 construct: HA; expressed in transfected cells
T3 sequence (P03372 1-595): T1 sequence (P03372 1-595 L536R) with R536L
Conditions: compound concentration 1 μM, 24 hours; read-out: Overexpressed ER (% Inhibition) WT. On the procedure: as §1, §2

Test [4] addresses T4, HA-ERα D538G (Homo sapiens, UniProt P03372, D538G).
T4 construct: HA; expressed in transfected cells
T4 sequence (P03372 1-595 D538G): T1 sequence (P03372 1-595 L536R) with R536L, D538G
Particulars: compound concentration 1 μM, 24 hours. On the procedure:
as §1, §2

Substitutions are numbered along the chain they refer to.

As for `O=C(COc1cccc2c1C(=O)N(C1CCC(=O)NC1=O)C2=O)NCCCCOc1ccc(C(=C2C3CC4CC(C3)CC2C4)c2ccc(O)cc2)cc1` (centres unmarked) [Example 15, N-(4-(4-(Adamantan-2-ylidene(4-hydroxyphenyl)methyl)phenoxy)butyl)-2-((2-(2,6-dioxopiperidin-3-yl)-1,3-dioxoisoindolin-4-yl)oxy)acetamide], the inhibition at 1 µM is 82% in test [1], -51% in test [2], 85% in test [3] and 93% in test [4].
The matching figures for `O=C(COc1cccc2c1C(=O)N(C1CCC(=O)NC1=O)C2=O)NCCCCCCOc1ccc(C(=C2C3CC4CC(C3)CC2C4)c2ccc(O)cc2)cc1` (centres unmarked) [Example 16, N-(6-(4-(Adamantan-2-ylidene(4-hydroxyphenyl)methyl)phenoxy)hexyl)-2-((2-(2,6-dioxopiperidin-3-yl)-1,3-dioxoisoindolin-4-yl)oxy)acetamide]: 64%, -65%, 81% and 61%.
On to `O=C1CCC(N2C(=O)c3cccc(OCCOCCOCCOc4ccc(C(=C5C6CC7CC(C6)CC5C7)c5ccc(O)cc5)cc4)c3C2=O)C(=O)N1` (centres unmarked) [Example 18, 4-(2-(2-(2-(4-(Adamantan-2-ylidene(4-hydroxyphenyl)methyl)phenoxy)-ethoxy)ethoxy)ethoxy)-2-(2,6-dioxopiperidin-3-yl)isoindoline-1,3-dione], for which the inhibition at 1 µM in test [1] was 84%; in test [2], -75%; in test [3], 80%; in test [4] it was 86%.
For `O=C1CCC(N2C(=O)c3cccc(OCCOCCOc4ccc(C(=C5C6CC7CC(C6)CC5C7)c5ccc(O)cc5)cc4)c3C2=O)C(=O)N1` (centres unmarked) [Example 19, 4-(2-(2-(4-(Adamantan-2-ylidene(4-hydroxyphenyl)methyl)phenoxy)-ethoxy)ethoxy)-2-(2,6-dioxopiperidin-3-yl)isoindoline-1,3-dione], in that order: 83%, -136%, 82% and 90%.
Turning to `Cc1c(-c2ccc(O)cc2)n(Cc2ccc(OCCCCNC(=O)[C@H]3CC[C@H](C(F)(F)F)CC3)cc2)c2ccc(O)cc12` [Example 20, (trans)-N-(4-(4-((5-Hydroxy-2-(4-hydroxyphenyl)-3-methyl-1H-indol-1-yl)methyl)phenoxy)butyl)-4-(trifluoromethyl)cyclohexanecarboxamide], in test [3], the inhibition at 1 µM came out at 83%.
On the same count and under the same terms, with `Cc1c(-c2ccc(O)cc2)n(Cc2ccc(OCCCCNC(=O)C34CC5CC(CC(C5)C3)C4)cc2)c2ccc(O)cc12` [Example 21, N-(4-(4-((5-Hydroxy-2-(4-hydroxyphenyl)-3-methyl-1H-indol-1-yl)methyl)phenoxy)butyl)adamantane-1-carboxamide] the figure was 82%; with `O=C(NCCCCOc1ccc(C2c3ccc(O)cc3CCC2c2ccccc2)cc1)[C@H]1CC[C@H](C(F)(F)F)CC1` (stereo partly drawn) [Example 22, (trans)-N-(4-(4-(6-Hydroxy-2-phenyl-1,2,3,4-tetrahydronaphthalen-1-yl)phenoxy)butyl)-4-(trifluoromethyl)cyclohexanecarboxamide], -130%.
As to `O=C(NCCCCOc1ccc(C(=C2CCCCC2)c2ccc(O)cc2)cc1)C1CCCCC1` [Example 23, N-(4-(4-(Cyclohexylidene(4-hydroxyphenyl)methyl)phenoxy)butyl)-cyclohexanecarboxamide], the inhibition at 1 µM in test [1] was 43%; in test [2] it was -169%; in test [3] it was -25%; in test [4] it was 0%.
For `O=C(NCCCCOc1ccc(C(=C2CCCCC2)c2ccc(O)cc2)cc1)C1CCC1` [Example 24, N-(4-(4-(Cyclohexylidene(4-hydroxyphenyl)methyl)phenoxy)-butyl)cyclobutanecarboxamide], in that order: -75%, -160%, -83% and -7%.
`O=C(CCC1CCCCC1)NCCCCOc1ccc(Oc2c(-c3ccc(O)cc3)sc3cc(O)ccc23)cc1` [Example 30, 3-Cyclohexyl-N-(4-(4-((6-hydroxy-2-(4-hydroxyphenyl)benzo[b]thiophen-3-yl)oxy)phenoxy)butyl)propanamide]: in test [3], the inhibition at 1 µM stood at 61%.
`O=C(NCCCCOc1ccc(C(=C2C3CC4CC(C3)CC2C4)c2ccc(O)cc2)cc1)C1CC1` [Example 31, N-(4-(4-(Adamantan-2-ylidene(4-hydroxyphenyl)methyl)phenoxy)butyl)cyclopropanecarboxamide]: in test [3], the inhibition at 1 µM came to 36%.
Same read-out and setting: with `O=C(NCCCCOc1ccc(C(=C2C3CC4CC(C3)CC2C4)c2ccc(O)cc2)cc1)C1CC1(F)F` (centres unmarked) [Example 32, N-(4-(4-(Adamantan-2-ylidene(4-hydroxyphenyl)methyl)phenoxy)butyl)-2,2-difluorocyclopropanecarboxamide] the figure was 48%; with `O=C(NCCCCOc1ccc(C(=C2C3CC4CC(C3)CC2C4)c2ccc(O)cc2)cc1)c1ccc(C(F)(F)F)cc1` [Example 33, N-(4-(4-(Adamantan-2-ylidene(4-hydroxyphenyl)methyl)phenoxy)butyl)-4-(trifluoromethyl)benzamide], 79%.
The same measure, in the same setting: as for `O=C(CCC1CCCCC1)NCCCCOc1ccc(C(=C2C3CC4CC(C3)CC2C4)c2ccc(O)cc2)cc1` [Example 34, N-(4-(4-(Adamantan-2-ylidene(4-hydroxyphenyl)methyl)phenoxy)butyl)-3-cyclohexylpropanamide], the figure is 65%.

These data come from patent publication US11667621B2, “Antiestrogen compounds” (STEVENS INSTITUTE OF TECHNOLOGY, priority 2018, dated 2023).
